One experiment has as its system RAS mRNA. As to the kind of experiment: Reduction of RAS mRNA in Drosophila pupae, measured by RT-PCR (2-ΔΔCt method). It is filed as in vivo. The conditions noted are these: 24 mM in culture medium, 5 days culture, 40 pupae, GAPDH internal reference, versus normal medium control. How it is done: The molecular weight of 1-methyl-4-phenyl-1,2,3,6-tetrahydropyridine is 173.25 g/mol. 1.7325 g of the compound was accurately weighed, dissolved in 10 mL of DMSO solution to prepare a 1 M mother liquid for later use.
The preparation of a normal culture medium: 0.53 g of agar and 1.6 g of yeast extraction powder was added to 50 mL H2O. The mixture obtained was heated until boiling. Then, 0.43 g of NaKT, 0.033 g of anhydrous CaCl2, 1.58 g of sucrose, 3.17 g of glucose, and 3.88 g of corn flour (pre-mixed thoroughly with cold water to prevent agglomeration) were added to the mixture, and was brought to boil before stopping heating. The final mixture was transferred in aliquots into a number of culture tubes with a diameter of 25 mm and a volume of 5-8 mL. The filled culture tubes were sterilized at high temperature (30 min, 116° C.), followed by cooling to around 50° C. […]
In the present invention, the content of RAS mRNA was measured by RT-PCR. […] After the amplification, the relative expression level of K-RAS in Drosophila was determined by the 2-ΔΔCt method.
After culturing in the normal culture medium (as a control group) and a culture medium doped by 24 mM of 1-methyl-4-phenyl-1,2,3,6-tetrahydropyridine (as a test group) for 5 days, 40 pupae were taken from each of the culture tubes used for the test. […] The relative amount of RAS mRNA was determined by the above method.

Experiment [1] relates to L185+L186 Drosophila tumor model. Kind of experiment: Inhibition of tumors in GFP-scrib-/- Drosophila tumor model (GFP fluorescence, live imaging). It counts as in vivo, Drosophila melanogaster. The settings on record: oral administration of 24 mM in doped culture medium, 5 days, 80 pupae; without compound 2.37×10^9 μW/cm^2. The source says:
A green fluorescent protein (GFP)-tagged FLP/FRT recombinant system and scrib/TM6B balanced Drosophila melanogaster strain were used for hybridization to obtain a GFP-scrib−/− chimeric tumorigenesis model (L185+L186), wherein the GFP expression is in linkage with tumorigenesis. The preparation of a normal culture medium and a doped culture medium was the same as in embodiment 1. After culturing in the normal culture medium and the doped culture medium for 5 days, 80 pupae were taken from the culture tubes used for the test and washed twice with PBS (phosphate buffered saline solution). The pupae were neatly arranged on slides and were then transferred to an ice box to freeze for 2 hours. The pupae were observed under an IVIS Lumina X5 live imaging system (excitation light wavelength 450-490 nm, the same hereafter), images were taken, and the expression of the green fluorescent protein was evaluated.

Take `CN1CC=C(c2ccccc2)CC1` [1-methyl-4-phenyl-1,2,3,6-tetrahydropyridine]: the “reduction of RAS mRNA level” value with RAS mRNA is reported as 3.5 folds. Moreover, the “absolute value of the fluorescence of the Drosophila tumor model” value in experiment [1] is reported as 3.5×10^8 μW/cm^2.

(Values after patent publication US20200085805A1, “METHOD FOR TREATING CANCER RELATED TO ACTIVATION OF RAS GENE IN SUBJECT” (priority 2018, published 2020).)
